Assays:
PcaKN.Ani = target: T1, PcaKN.Ani (Neisseria animalis, UniProt A0A5P3MSQ9); assay: uptake-coupled PcaV-sfGFP biosensor dose response in P. putida KT2440 delta-pcaK; assay type: cell-based
T1 construct: gene D0T90_09335; full-length transporter expressed in Pseudomonas putida KT2440 delta-pcaK with PcaV-sfGFP reporter plasmid; 4,5-cleavage pathway operon
From the text: uptake-coupled PcaV-sfGFP biosensor dose response in P. putida KT2440 delta-pcaK on PcaKN.Ani

PcaKB.Mas = test system: T2, PcaKB.Mas; assay: as above; assay type: cell-based, Bacillus massiliglaciei; details: whole-cell transporter-biosensor EC50 (reflects transporter plus PcaV sensor); LB, 3 h, 0.01-5 mM PCA
T2 construct: gene pcaK; full-length transporter expressed in Pseudomonas putida KT2440 delta-pcaK with PcaV-sfGFP reporter plasmid; 2,3-cleavage pathway operon
From the text: uptake-coupled PcaV-sfGFP biosensor dose response in P. putida KT2440 delta-pcaK on PcaKB.Mas

PcakA.Ant = target: T3, PcakA.Ant (Comamonas antarctica, UniProt A0A6N1X255); assay: as above; assay type: cell-based
T3 construct: gene HUK68_11000; full-length transporter expressed in Pseudomonas putida KT2440 delta-pcaK with PcaV-sfGFP reporter plasmid; 4,5-cleavage pathway operon
T3 sequence (A0A6N1X255 1-458): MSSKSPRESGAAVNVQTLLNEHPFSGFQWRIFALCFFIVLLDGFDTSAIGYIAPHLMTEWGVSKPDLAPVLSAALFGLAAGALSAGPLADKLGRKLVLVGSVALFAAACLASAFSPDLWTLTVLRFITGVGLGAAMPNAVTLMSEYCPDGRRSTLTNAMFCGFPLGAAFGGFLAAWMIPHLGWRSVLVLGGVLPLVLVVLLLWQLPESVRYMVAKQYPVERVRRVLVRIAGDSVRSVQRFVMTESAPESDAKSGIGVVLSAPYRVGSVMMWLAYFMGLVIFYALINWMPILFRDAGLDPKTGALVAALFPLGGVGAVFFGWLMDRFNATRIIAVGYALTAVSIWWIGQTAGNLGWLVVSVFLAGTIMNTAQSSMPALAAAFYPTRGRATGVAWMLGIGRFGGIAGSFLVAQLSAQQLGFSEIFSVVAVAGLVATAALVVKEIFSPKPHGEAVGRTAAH
From the text: uptake-coupled PcaV-sfGFP biosensor dose response in P. putida KT2440 delta-pcaK on PcakA.Ant

PcaKP.Put = target: T4, PcaKP.Put (Pseudomonas putida, UniProt Q51955); assay: as above; assay type: cell-based
T4 construct: gene pcaK; full-length transporter expressed in Pseudomonas putida KT2440 delta-pcaK with PcaV-sfGFP reporter plasmid
T4 sequence (Q51955 1-448): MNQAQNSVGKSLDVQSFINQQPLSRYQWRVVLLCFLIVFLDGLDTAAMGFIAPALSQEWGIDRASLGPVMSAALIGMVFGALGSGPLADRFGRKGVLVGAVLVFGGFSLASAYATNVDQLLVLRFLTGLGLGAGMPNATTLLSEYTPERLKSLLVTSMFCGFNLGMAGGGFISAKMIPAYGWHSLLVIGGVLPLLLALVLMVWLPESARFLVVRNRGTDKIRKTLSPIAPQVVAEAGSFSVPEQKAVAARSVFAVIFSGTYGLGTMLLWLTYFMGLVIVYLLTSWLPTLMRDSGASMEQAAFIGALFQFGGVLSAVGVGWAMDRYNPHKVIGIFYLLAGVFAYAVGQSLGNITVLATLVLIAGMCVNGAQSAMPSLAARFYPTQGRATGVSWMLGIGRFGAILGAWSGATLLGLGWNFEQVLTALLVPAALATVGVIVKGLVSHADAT
From the text: uptake-coupled PcaV-sfGFP biosensor dose response in P. putida KT2440 delta-pcaK on PcaKP.Put

TphKP.Um = test system: T5, TphKP.Um; assay: uptake-coupled TphR-sfGFP biosensor dose response in P. putida KT2440; assay type: cell-based, Pseudomonas umsongensis; details: whole-cell transporter-biosensor EC50 (reflects transporter plus TphR sensor); LB, 16 h, 0.005-1 mM TPA
T5 construct: gene tphK; full-length transporter expressed in Pseudomonas putida KT2440 with TphR-sfGFP reporter plasmid
From the text: uptake-coupled TphR-sfGFP biosensor dose response in P. putida KT2440 on TphKP.Um

TphKP.Man = target: T6, TphKP.Man (Pseudomonas mandelii, UniProt A0A024E7Y9); assay: as above; assay type: cell-based
T6 construct: gene tpaK; full-length transporter expressed in Pseudomonas putida KT2440 with TphR-sfGFP reporter plasmid
From the text: uptake-coupled TphR-sfGFP biosensor dose response in P. putida KT2440 on TphKP.Man

TphKS.Nap = test system: T7, TphKS.Nap; assay: as above; assay type: cell-based, Sphingobium naphthae; details: whole-cell transporter-biosensor EC50 (reflects transporter plus TphR sensor); LB, 16 h, 0.005-1 mM TPA
T7 construct: gene tphK; full-length transporter expressed in Pseudomonas putida KT2440 with TphR-sfGFP reporter plasmid
From the text: uptake-coupled TphR-sfGFP biosensor dose response in P. putida KT2440 on TphKS.Nap

TphKB.Pac = test system: T8, TphKB.Pac; assay: as above; assay type: cell-based, Bradyrhizobium pachyrhizi; details: whole-cell transporter-biosensor EC50 (reflects transporter plus TphR sensor); LB, 16 h, 0.005-1 mM TPA
T8 construct: gene tphK; full-length transporter expressed in Pseudomonas putida KT2440 with TphR-sfGFP reporter plasmid
From the text: uptake-coupled TphR-sfGFP biosensor dose response in P. putida KT2440 on TphKB.Pac

TphKS.Hor = test system: T9, TphKS.Hor; assay: as above; assay type: cell-based, Saccharopolyspora hordei; details: whole-cell transporter-biosensor EC50 (reflects transporter plus TphR sensor); LB, 16 h, 0.005-1 mM TPA
T9 construct: gene tphK; full-length transporter expressed in Pseudomonas putida KT2440 with TphR-sfGFP reporter plasmid
From the text: uptake-coupled TphR-sfGFP biosensor dose response in P. putida KT2440 on TphKS.Hor

TphKR.Pyr = test system: T10, TphKR.Pyr; assay: as above; assay type: cell-based, Rhodococcus pyridinivorans; details: whole-cell transporter-biosensor EC50 (reflects transporter plus TphR sensor); LB, 16 h, 0.005-1 mM TPA
T10 construct: gene tphK; full-length transporter expressed in Pseudomonas putida KT2440 with TphR-sfGFP reporter plasmid
From the text: uptake-coupled TphR-sfGFP biosensor dose response in P. putida KT2440 on TphKR.Pyr

TphKR.Op = target: T11, TphKR.Op (Rhodococcus opacus, UniProt A0A1B1KG70); assay: as above; assay type: cell-based
T11 construct: gene tpaK; full-length transporter expressed in Pseudomonas putida KT2440 with TphR-sfGFP reporter plasmid
T11 sequence (A0A1B1KG70 1-459): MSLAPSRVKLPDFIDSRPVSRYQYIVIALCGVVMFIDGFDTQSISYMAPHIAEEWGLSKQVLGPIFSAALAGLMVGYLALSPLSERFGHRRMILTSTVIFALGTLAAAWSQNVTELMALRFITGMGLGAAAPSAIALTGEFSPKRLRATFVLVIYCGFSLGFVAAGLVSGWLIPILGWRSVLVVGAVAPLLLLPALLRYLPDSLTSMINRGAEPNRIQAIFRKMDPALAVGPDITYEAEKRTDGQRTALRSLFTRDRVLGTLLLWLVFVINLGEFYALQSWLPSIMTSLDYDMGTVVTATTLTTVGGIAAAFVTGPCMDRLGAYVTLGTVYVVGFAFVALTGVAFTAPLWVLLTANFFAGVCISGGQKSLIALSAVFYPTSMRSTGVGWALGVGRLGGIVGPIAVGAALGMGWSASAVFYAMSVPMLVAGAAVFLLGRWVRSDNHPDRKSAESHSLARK
From the text: uptake-coupled TphR-sfGFP biosensor dose response in P. putida KT2440 on TphKR.Op

T1 sequence (A0A5P3MSQ9 entry or part of it): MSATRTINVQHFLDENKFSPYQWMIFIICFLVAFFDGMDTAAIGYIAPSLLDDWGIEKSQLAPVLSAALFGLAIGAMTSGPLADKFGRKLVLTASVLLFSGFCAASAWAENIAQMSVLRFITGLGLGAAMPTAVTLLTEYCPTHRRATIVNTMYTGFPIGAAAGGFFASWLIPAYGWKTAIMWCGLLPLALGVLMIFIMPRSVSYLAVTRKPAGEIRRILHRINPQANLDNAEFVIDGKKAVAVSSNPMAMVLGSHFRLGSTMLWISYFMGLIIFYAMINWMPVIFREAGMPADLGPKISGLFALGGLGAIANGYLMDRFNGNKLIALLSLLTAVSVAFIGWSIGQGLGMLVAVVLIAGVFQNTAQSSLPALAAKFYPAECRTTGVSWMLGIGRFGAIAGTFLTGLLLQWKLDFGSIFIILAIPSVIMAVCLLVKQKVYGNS

Structure (SMILES)	EC50 (PcaKN.Ani)	EC50 (PcaKB.Mas)	EC50 (PcakA.Ant)	EC50 (PcaKP.Put)	EC50 (TphKP.Um)	EC50 (TphKP.Man)	EC50 (TphKS.Nap)	EC50 (TphKB.Pac)	EC50 (TphKS.Hor)	EC50 (TphKR.Pyr)	EC50 (TphKR.Op)
O=C(O)c1ccc(O)c(O)c1 [P2, protocatechuic acid]	847 µM	1710 µM	735 µM	2050 µM							
O=C(O)c1ccc(C(=O)O)cc1 [T3, terephthalic acid]					19.1 µM	14.4 µM	1.96 µM	17.1 µM	39.6 µM	10.7 µM	79.2 µM

Source: PMC12577307, “Genetically encoded biosensor enabled mining, characterisation and engineering of aromatic acid MFS transporters” (Journal of Biological Engineering, 2025)
